This is an account of results in article PMC9481103 (2022).

Assay in all cases: in-line probing
Settings in all cases: 20 mM MgCl2, 100 mM KCl, 50 mM Tris-HCl pH 8.3, 28 °C, 42-48 h, apparent

Assay [1] relates to aptamer 1 (c-di-GMP-I riboswitch aptamer, cluster 1) (RNA, riboswitch) GUCGUGAACAAGCCACACCCCGGGCGACCGGGGGCCGGAAAGCCGCGGGUCUCAGCAGAGACGGCCGGGUUGCCACCAGGC
Assay [2] deals with aptamer 2 (c-di-GMP-I riboswitch aptamer, cluster 2) (RNA, riboswitch) GUCGUGAAGAAGCCACACCCCGGGCGACCGGGGGCCGGAAAGCCGCGGGUCUCAGCAGAGACGGCCGGGUUGCCACCAGAC
Assay [3] has as its system aptamer 3 (c-AMP-GMP riboswitch aptamer, cluster 3) (RNA, riboswitch) GCCGUGAAAAAACCACACCUCGGGCGACCGGGGGCCGGAAAGCCGCGGGUCUCAAAGGAGAUGGCCGGGUUGCCAGAAGGC

For the molecule `Nc1nc2c(ncn2[C@@H]2O[C@@H]3COP(=O)(O)O[C@H]4[C@@H](O)[C@H](n5cnc6c(N)ncnc65)O[C@@H]4COP(=O)(O)O[C@H]3[C@H]2O)c(=O)[nH]1`, the KD in assay [1] (Hill coefficient fixed at 1, micro sign lost in text layer ("34 M")) was ~ 34 µM; in assay [2] (Hill coefficient fixed at 1, micro sign lost in text layer ("25 M")), ~ 25 µM; in assay [3] (Hill coefficient fixed at 1, micro sign lost in text layer ("1 M")), ~ 1 µM.
In the case of `Nc1nc2c(ncn2[C@@H]2O[C@@H]3COP(=O)(O)O[C@H]4[C@@H](O)[C@H](n5cnc6c(=O)[nH]c(N)nc65)O[C@@H]4COP(=O)(O)O[C@H]3[C@H]2O)c(=O)[nH]1`, the KD in assay [1] (Hill coefficient fixed at 1) is ~ 20 nM; in assay [2] (Hill coefficient fixed at 1), ~ 77 nM; in assay [3] (Hill coefficient fixed at 1) it was ~ 100 nM.
